# According to patent US12528822B2, “Cycloalkane-1,3-diamine derivative” (Daiichi Sankyo Company, Limited, priority 2018, dated 2026):
# Where a name gives a salt, the structure may show the parent alone. Read-outs that look alike come from different tables or passages of the source.
# Legend:
# [1] = test system: MLL-AF9-overexpressing AML-like cells (MA9 cells); assay: Differentiation-inducing activity in MLL-AF9-overexpressing AML-like cells (flow cytometry of Gr-1 and cKit); type: cell-based, mouse; details: 7 days, 5 or 20 nM (Ex. 25, 27), 150 or 300 nM (Ex. 26), 50 or 100 nM (Ex. 22), compared with the control group (DMSO); for rate of the myeloid cell differentiation antigen Gr-1-expressing cells in living cells: FIG. 10; for rate of the cKit-expressing cells in living cells: FIG. 11
# Method: The human MLL-AF9 fusion gene was introduced into cKit-positive mononuclear cells isolated from the myeloid of C57BL6 mouse, by retrovirus infection. MLL-AF9-overexpressing AML-like cells (MA9 cells) that acquired abnormal growth ability were established by liquid-culturing the cells after virus infection for a long period of time. Serum-free medium (GlutaMax, P/S, Stem Pro-34 medium containing 10 ng/ml mIL-3, 50 ng/mL mSCF and 10 ng/mL human Oncostatin M) was used as a culture medium.
# (2 μL/well) (day 0). After culturing for 7 days (day 7), the cells were collected, and blocked with 5% FBS/PBS containing 10% Mouse BD Fc Block (BD) for 10 minutes at room temperature, and then any of various antibodies (Gr-1-FITC or CD117 (cKit)-APC: Biolegend) was added thereto at a final concentration of 0.4 μg/sample, and the mixture was reacted on ice for 30 minutes. Then, dead cell staining dye DAPI (0.2 mg/mL) was added thereto at so as to be 1 μL/sample, and the reaction was carried out on ice for additional 2 minutes under shading. Then, the expression level of each surface antigen of the cells was measured by NovoCyte flow cytometer (LMS). The obtained data were analyzed by FlowJo software (Becton Dickinson), and the rate of each surface antigen-expressing cells in the living cells excluding dead cells was graphed.
# [2] = target: T1, menin (Flag tagged) and biotinylated MLL1 peptide (1-46aa) (Homo sapiens, UniProt O00255); assay: biochemical
# T1 sequence (O00255 1-610): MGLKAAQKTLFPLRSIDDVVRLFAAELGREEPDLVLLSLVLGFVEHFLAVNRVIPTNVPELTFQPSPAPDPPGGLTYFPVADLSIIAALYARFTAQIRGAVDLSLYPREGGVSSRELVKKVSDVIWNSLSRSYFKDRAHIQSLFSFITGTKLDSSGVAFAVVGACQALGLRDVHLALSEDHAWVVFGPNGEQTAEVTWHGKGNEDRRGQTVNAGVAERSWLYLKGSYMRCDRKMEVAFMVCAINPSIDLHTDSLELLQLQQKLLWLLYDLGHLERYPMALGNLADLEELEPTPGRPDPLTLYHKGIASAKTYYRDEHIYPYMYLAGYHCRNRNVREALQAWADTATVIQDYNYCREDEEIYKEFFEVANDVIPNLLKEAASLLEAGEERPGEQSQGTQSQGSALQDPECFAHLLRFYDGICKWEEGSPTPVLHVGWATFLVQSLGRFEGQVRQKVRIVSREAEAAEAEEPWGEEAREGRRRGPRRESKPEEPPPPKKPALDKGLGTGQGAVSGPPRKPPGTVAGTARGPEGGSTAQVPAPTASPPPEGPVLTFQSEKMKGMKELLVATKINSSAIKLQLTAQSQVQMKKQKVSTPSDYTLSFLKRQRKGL
# Method: Then, the fluorescence signal by AlphaLISA (registered trademark, PerkinElmer Co., Ltd.) was measured using a plate reader (PerkinElmer Co., Ltd., EnVisionXcite).
# MV-4-11 cells = assay: Cell growth inhibitory activity, MV-4-11 cells (CellTiter-Glo, 384-well); type: cell-based; details: Homo sapiens
# Method: (§1) Each cell was purchased from American Type Culture Collection (ATCC). […] The prepared drug-containing plate was stored at −30° C. until use, and thawed before use.
# (§2) The suspension of each cells was prepared with 10% FBS RPMI1640 culture medium so as to be 1000 cells/mL (K562) or 10000 cells/mL (MV-4-11, MOLM-13), and seeded on the drug-containing plate (40 μL/well) (day 0). The cells were cultured for additional 3 or 7 days. ATP measurement reagent (CellTiter-Glo (registered trademark, Promega Corporation) 2.0 Assay, model number G9242, Promega Corporation) was added to each well at 10 μL/well, on the day of the drug addition (day 0) and 3 days (day 3) or 7 days (day 7) after the drug addition. After affixing a black sticker on the bottom surface, the mixture was stirred using a microplate mixing deaeration machine (model name, Weltornado FK-62, Sakaki Dengyo Co., Ltd.) (stirring conditions, revolution 9, rotation 7, time 12).
# (§3) The cell growth of the drug-added group from day 0 to day 3 or day 7 was calculated as T/C %, when the cell growth of the drug-free group was considered as 100%.
# MOLM-13 cells = assay: cells; type: cell-based; details: Homo sapiens
# Method: as §1, §2, §3
# K562 cells = assay: Cell growth inhibitory activity, K562 cells (CellTiter-Glo, 384-well); type: cell-based; details: Homo sapiens
# Method: as §1, §2, §3
Compound,rate of the myeloid cell differentiation antigen Gr-1-expressing cells in living cells [1],rate of the cKit-expressing cells in living cells [1],IC50 [2] [nM],"GI50 (MV-4-11 cells; 72 h, MV4;11, Day 3, read-out: GI50 (μM) Day 3 MV4) [µM]","GI50 (MV-4-11 cells; 168 h, MV4;11, Day 7, read-out: GI50 (μM) Day 7 MV4) [µM]","GI50 (MOLM-13 cells; MOLM-13, 72 h, read-out: GI50 (μM) Day 3 MOLM-13) [µM]","GI50 (MOLM-13 cells; MOLM-13, 168 h, read-out: GI50 (μM) Day 7 MOLM-13) [µM]","GI50 (K562 cells; 72 h, K562, Day 3, read-out: GI50 (μM) Day 3 K562) [µM]","GI50 (K562 cells; 168 h, K562, Day 7, read-out: GI50 (μM) Day 7 K562) [µM]"
"COc1cc(-c2ccc(CN[C@H]3C[C@@H](O)[C@@H](N(C)c4ncnc5sc(CC(F)(F)F)cc45)C3)cc2)cnc1C#N [Example 22, 5-[4-({[(1R,3R,4S)-3-hydroxy-4-{methyl[6-(2,2,2-trifluoroethyl)thieno[2,3-d]pyrimidin-4-yl]amino}cyclopentyl]amino}methyl)phenyl]-3-methoxypyridine-2-carbonitrile Hydrochloride]",increased the rate of Gr-1-positive cells,reduced the rate of cKit-positive cells,–,–,–,–,–,–,–
"COc1cc(-c2ccc(CN[C@H]3C[C@@H](O)[C@@H](N(C)c4ncnc5sc(CC(F)(F)F)cc45)C3)cc2)nnc1OC [Example 25, (1R,2S,4R)-4-({[4-(5,6-dimethoxypyridazin-3-yl)phenyl]methyl}amino)-2-{methyl[6-(2,2,2-trifluoroethyl)thieno[2,3-d]pyrimidin-4-yl]amino}cyclopentan-1-ol Hydrochloride]",increased the rate of Gr-1-positive cells,reduced the rate of cKit-positive cells,–,–,–,–,–,–,–
"COc1nc(N(C)[C@H]2C[C@@H](NCc3ccc(-c4cc(OC)c(OC)nn4)cc3)C[C@H]2O)c2cc(CC(F)(F)F)sc2n1 [Example 27, (1R,2S,4R)-4-({[4-(5,6-dimethoxypyridazin-3-yl)phenyl]methyl}amino)-2-{[2-methoxy-6-(2,2,2-trifluoroethyl)thieno[2,3-d]pyrimidin-4-yl](methyl)amino}cyclopentan-1-ol Hydrochloride]",increased the rate of Gr-1-positive cells,reduced the rate of cKit-positive cells,–,–,–,–,–,–,–
"FC(F)(F)Cc1cc2c(N[C@@H]3CCC[C@H](NCc4ccc(NC5CCCCC5)cc4)C3)ncnc2s1 [Example 44, (1S,3R)-N^1-{[4-(cyclohexylamino)phenyl]methyl}-N^3-[6-(2,2,2-trifluoroethyl)thieno[2,3-d]pyrimidin-4-yl]cyclohexane-1,3-diamine hydrochloride]",–,–,335,1.89,1.53,2.73,2.93,2.75,1.91
